Assay results taken from patent publication US9480772B2, “Gel sheet containing lipid peptide gelator and polymeric compound” (NISSAN CHEMICAL INDUSTRIES, LTD., priority 2010, dated 2016).
Residues, ends and D or L forms follow the SMILES beside them. *: point of attachment. Palmitoyl = CCCCCCCCCCCCCCCC(=O)*

Assay: Gel state after standing overnight and affinity with water (Example 1)
Assay type: physicochemical
Design: key to Affinity with water by addition of milliQ water: a sample ascertained to have the affinity with water is evaluated as ∘; a sample ascertained to have no affinity with water is evaluated as x
Method: N-Palmitoyl-Gly-His synthesized above was dissolved in a 50 mM phosphate buffer solution (pH 7.5) so as to give a concentration of 1% (w/w) in a closed system at 100° C. To the solution, gum arable (Wako Pure Chemical Industries, Ltd.) was added dropwise so as to give a concentration of 10% (w/w) so as to form gel. From the formed gel, 200 μl of the gel was taken and dropped onto a glass petri dish. The gel was left overnight and then observed. To the gel after standing overnight, milliQ water was dropped, and the affinity with water was observed. Also, PVA (manufactured by Wako Pure Chemical Industries, Ltd., n=1,500 to 1,800) at a concentration of 10% (w/w) was added dropwise, in place of the gum arabic, so as to form gel. Then, the gel was subjected to the same procedure, and the gel after standing overnight was observed.
For comparison, gum arable alone or PVA alone was used without using N-palmitoyl-Gly-His and was dropped onto a glass petri dish in a similar manner. Then, each sample was left overnight and then observed in a similar manner.
From the observation results, a sample ascertained to have the affinity with water is evaluated as ∘, and a sample ascertained to have no affinity with water is evaluated as x.

- Change in gel state after standing overnight (200 μl dropped onto a glass petri dish, left overnight): White gel
- Affinity with water by addition of milliQ water (gel after standing overnight, milliQ water dropped): ∘
Compound: CCCCCCCCCCCCCCCC(=O)NCC(=O)N[C@@H](Cc1c[nH]cn1)C(=O)O [N-palmitoyl-Gly-His] (Palmitoyl-Gly-His-OH)
